Some results are limits rather than exact numbers.

Broadly, the IC50 is the midpoint of a concentration-inhibition curve. A low value points to greater potency in that assay.

In one assay the test system is mouse vas deferens. In words: mouse vas deferens test (MVD). Format: cell-based. To be noted: Mus musculus, inhibition of contractions in mouse vas deferens preparation in vitro; active at 5.0 μM or less. The text has this: Med. Assoc. 217, 1392 (1971)]. […] Opth 7, 921-923 (1975); Green and Pederson, Effect of delta-9 Tetrahydrocannabinol on Aqueous Dynamics and Ciliary Body Permeability in the Rabbit Eye., Exptl. Eye Research 15, 499-507 (1973); Colasanti, Craig and Allara, Intraocular Pressure, Ocular Toxicity and Neurotoxicity after Administration of Cannabinol or Cannibigerol, Exptl. Eye Research 39, 252-259 (1984)]. Similarly, synthetic cannabinoids also reduce intraocular pressure [Green, Symunds, Oliver and Elijah, Intraocular Pressure Following Systemic Administration of Cannabinoids, Curr. Eye Research 2, 247-253 (1982); Tiedeman, Shields, Weber, Crow, Coccetto, Harris and Howes, Ophthalmology., 88, 270-277 (1981); Colasanti et al., supra]. Cannabinoid receptor binding sites can be defined as those to which radio-labelled 4-(1,1-dimethylheptyl)-2,3'-dihydroxy-6'alpha-(3-hydroxypropyl)-1',2',3',4',5',6'-hexahydrobiphenyl (CP 55940) binds in a specific and saturable manner, and the binding sites are heterogeneously distributed in the brain [Devane, Dysarz, Johnson, Melvin and Howlett, Determination and Characterization of a Cannabinoid Receptor in Rat Brain, Molecular Pharm. 34, 605-613 (1988)]. Natural and synthetic cannabinoids and representative examples of the compounds of the present invention bind to CP 55940 binding sites. […] It is believed that agonist activity at the cannabinoid receptor mediates the anti-glaucoma actions of cannabinoids, and that agonist activity at this receptor correlates with ocular pressure lowering actions in man.
`Cc1c(C(=O)c2ccc3c(c2)OCO3)c2ccccc2n1CCN1CCOCC1` [Example 1-O] returned an IC50 of 1300 nM. That is a single-digit micromolar value.
On to `COc1cccc(C(=O)c2c(C)n(CCN3CCOCC3)c3ccccc23)c1` [Example 1AA], for which 200 nM corresponded to half-maximal inhibition (IC50).
On the same count and under the same terms, the figure for `COc1ccc(C(=O)c2c(C)n(CCN3CCOCC3)c3ccccc23)cc1OC` [Example 1AB] is 68 nM.
The same measure, in the same setting: the figure for `Cc1c(C(=O)c2ccccc2)c2ccccc2n1CCN1CCOCC1` [Example 1AE] is 700 nM; for `O=C(c1ccccc1)c1cn(CCN2CCOCC2)c2ccccc12` [Example 1AF] it is 1100 nM; for `Cc1c(C(=O)c2ccc(Cl)cc2)c2ccccc2n1CCN1CCOCC1` [Example 1AG] it is 560 nM.
The same measure, in the same setting: the figure for `Cc1c(C(=O)c2ccccc2)c2ccccc2n1C(C)CN1CCOCC1` (stereo not shown) [Example 1AK] is 900 nM; for `COc1ccc(C(=O)c2c(C)n(CCN3CCOCC3)c3ccccc23)c2ccccc12` [Example 1AV] it is 26 nM; for `COc1ccc2cc(C(=O)c3c(C)n(CCN4CCOCC4)c4ccccc34)ccc2c1` [Example 1AW] it is 460 nM.
For `COc1ccc(C(=O)c2cn(CCCN3CCOCC3)c3ccc(F)cc23)cc1` [Example 1AX], the IC50 was over 10000 nM.
As for `Cc1c(C(=O)c2cccc3c2OCO3)c2ccccc2n1CCN1CCOCC1` [Example 1BJ], half-maximal inhibition (IC50) required 310 nM.
`Cc1cccc(C)c1C(=O)c1c(C)n(CCN2CCOCC2)c2ccccc12` [Example 1BO] displayed an IC50 of 1600 nM.
On the same count and under the same terms, with `COc1cccc(C(=O)c2c(C)n(CCN3CCOCC3)c3ccccc23)c1OC` [Example 1BP] the figure was 260 nM.
For `COc1cc(OC)cc(C(=O)c2c(C)n(CCN3CCOCC3)c3ccccc23)c1` [Example 1BQ], it took 420 nM to reach half-maximal inhibition (IC50).
On the same count and under the same terms, with `Cc1c(C(=O)c2cccc3ccccc23)c2ccccc2n1CCCN1CCOCC1` [Example 1BU] the figure was 111 nM; with `Cc1ccc2c(C(=O)c3cccc4ccccc34)c(C)n(CCN3CCOCC3)c2c1` [Example 1BV], 15 nM.
Same read-out and setting: with `O=C(c1cccc2ccccc12)c1cn(CCN2CCOCC2)c2ccc(Br)cc12` [Example 1BW] the figure was 20 nM; with `CC(Cn1cc(C(=O)c2cccc3ccccc23)c2ccccc21)N1CCOCC1` (stereo not shown) [Example 1BX], 60 nM; with `COc1ccc(C(=O)c2cn(CCCN3CCOCC3)c3ccccc23)cc1` [Example 1BZ], 4300 nM.
Still for that read-out and setting: with `COc1cc(C(=O)c2c(C)n(CCN3CCOCC3)c3ccccc23)cc(OC)c1OC` [Example 1CB] the figure was 90 nM.
`COc1ccc(C(=O)c2cn(CCCN3CCOCC3)c3c(C)cccc23)cc1` [Example 1CD] registered an IC50 of 40 nM.
Still for that read-out and setting: with `O=C(c1cccc2ccccc12)c1cn(CCN2CCOCC2)c2ccc(F)cc12` [Example 1CE] the figure was 7 nM; with `Cc1c(C(=O)c2cccc3cc4ccccc4cc23)c2ccccc2n1CCN1CCOCC1` [Example 1CF], 60 nM.
Take `Cc1c(C(=O)c2cc3ccccc3c3ccccc23)c2ccccc2n1CCN1CCOCC1` [Example 1CG]: the IC50 stood at 170 nM.
Same read-out and setting: the figure for `COc1ccc(C(=O)c2c(C)n(CCN3CCCC3)c3ccccc23)cc1` [Example 1CI] is 240 nM; for `COc1ccc(C(=O)c2c(C)n(CCCN3CCCC3)c3ccccc23)cc1` [Example 1CJ] it is over 10000 nM; for `CSc1ccc(C(=O)c2c(C)n(CCN3CCOCC3)c3ccccc23)cc1` [Example 1C] it is 610 nM.
The same measure, in the same setting: with `COc1ccc(C(=O)c2c(C)n(CCN3CCOCC3)c3c(C)cccc23)cc1` [Example 1D] the figure was 178 nM; with `COc1ccc(C(=O)c2c(C)n(CCN3CCOCC3)c3ccc(F)cc23)cc1` [Example 1E], 120 nM.
`COc1ccc(C(=O)c2c(C)n(CCCN3CCOCC3)c3ccccc23)cc1` [Example 1H] yielded an IC50 of 360 nM.
Still for that read-out and setting: the figure for `COc1ccc(C(=O)c2c(C)n(CCN3CCOCC3)c3c(F)cccc23)cc1` [Example 1J] is 73 nM.
As for `COc1ccc(C(=O)c2c(C)n(CCN3CCOCC3)c3c(OC)cccc23)cc1` [Example 1K], the IC50 came out at 260 nM.
Same read-out and setting: the figure for `COc1ccc(C(=O)c2c(C)n(CCN3CCOCC3)c3cc(Cl)ccc23)cc1` [Example 1L] is 540 nM; for `Cc1c(C(=O)c2cc3ccccc3o2)c2ccccc2n1CCN1CCOCC1` [Example 1P] it is 320 nM; for `COc1ccccc1C(=O)c1c(C)n(CCN2CCOCC2)c2ccccc12` [Example 1R] it is 90 nM.
`Cc1c(C(=O)c2ccc3ccccc3c2)c2ccccc2n1CCN1CCOCC1` [Example 1S] registered an IC50 of 50 nM.
As for `Cc1c(C(=O)c2cccc(F)c2)c2ccccc2n1CCN1CCOCC1` [Example 1U], the half-inhibitory concentration (IC50) was found to be 1900 nM. Compared with the last compound, the IC50 is about 38-fold higher.
The same measure, in the same setting: the figure for `CCc1ccc(C(=O)c2c(C)n(CCN3CCOCC3)c3ccccc23)cc1` [Example 1X] is 71 nM; for `Cc1ccc(C(=O)c2c(C)n(CCN3CCOCC3)c3ccccc23)cc1` [Example 1Z] it is 440 nM; for `Cc1c(C(=O)c2ccc3occc3c2)c2ccccc2n1CCN1CCOCC1` [Example 2AA] it is 125 nM.
`COc1ccc(C(=O)c2c(C)n(CCN3CCOCC3)c3ccccc23)c(F)c1` [Example 2AD] gave an IC50 of 180 nM.
Same read-out and setting: with `Cc1c(C(=O)c2c(F)cccc2F)c2ccccc2n1CCN1CCOCC1` [Example 2AG] the figure was 370 nM.
The compound `Cc1cc(C)cc(C(=O)c2c(C)n(CCN3CCOCC3)c3ccccc23)c1` [Example 2AJ] yielded an IC50 of 390 nM.
In the case of `Cc1c(C(=O)c2cccc(F)c2)c2ccccc2n1C(C)CN1CCOCC1` (stereo not shown) [Example 2AM], the IC50 was determined as 860 nM.
With `Cc1c(C(=O)c2ccc(Br)cc2)c2ccccc2n1CCN1CCOCC1` [Example 2AR], the IC50 is 620 nM.
The compound `Cc1c(C(=O)c2ccc(Br)c3ccccc23)c2ccccc2n1CCN1CCOCC1` [Example 2AT] came in with an IC50 of 34 nM.
The same measure, in the same setting: the figure for `COc1ccc(C(=O)c2cn(C(C)CN3CCOCC3)c3ccccc23)cc1` (stereo not shown) [Example 2AU] is 3700 nM.
The same measure, in the same setting: the figure for `CCC(CN1CCOCC1)n1c(C)c(C(=O)c2ccc3ccccc3c2)c2ccccc21` (stereo not shown) [Example 2AV] is 91 nM; for `O=C(c1ccc(Br)c2ccccc12)c1cn(CCN2CCOCC2)c2ccccc12` [Example 2AW] it is 5 nM.
`O=C(c1cccc2ccccc12)c1cn(CCCN2CCOCC2)c2ccccc12` [Example 2AX]: half-maximal inhibition (IC50) was put at 10 nM. Compared with the last compound, the IC50 is about 2-fold higher.
On the same count and under the same terms, the figure for `Cc1ccc2c(C(=O)c3cccc4ccccc34)cn(CCN3CCOCC3)c2c1` [Example 2AY] is 2 nM; for `Cc1c(C(=O)c2ccc3ncccc3c2)c2ccccc2n1CCN1CCOCC1` [Example 2AZ] it is 102 nM; for `Cc1c(C(=O)c2ccc3cccnc3c2)c2ccccc2n1CCN1CCOCC1` [Example 2BA] it is 93 nM.
`Cc1c(C(=O)c2cccc3cccnc23)c2ccccc2n1CCN1CCOCC1` [Example 2BB] displayed a concentration for half-maximal inhibition (IC50) of 129 nM.
On the same count and under the same terms, the figure for `Cc1c(C(=O)c2cnc3ccccc3c2)c2ccccc2n1CCN1CCOCC1` [Example 2BC] is 570 nM; for `Cc1c(C(=O)c2ccc3ccccc3n2)c2ccccc2n1CCN1CCOCC1` [Example 2BD] it is 99 nM.

Staying with this assay, now noted: inhibition of contractions in mouse vas deferens preparation in vitro; active at 5.0 μM or less.
`O=C(c1ccccc1)c1cn(CCN2CCOCC2)c2ccccc12` [Example 1CH] gave an IC50 of 1600 nM.
The same measure, in the same setting: the figure for `COc1ccc(C(=O)c2c(C)n(CCN3CCOCC3)c3ccccc23)cc1` [Example 1F] is 1400 nM.

The record behind these values is patent US4973587A, “3-arylcarbonyl-1-aminoalkyl-1H-indole-containing antiglaucoma method” (Sterling Drug Inc., priority 1990, dated 1990).
